As usually defined, the inhibition is the drop in the measured response relative to a control, in per cent. High values mean strong suppression, low ones little suppression.

Holding throughout (format): functional
Assay [1] has as its system Jurkat. The assay is described as follows: Antiproliferative activity against human Jurkat cells assessed as proliferation index of >/= 3rd generation cells at 10 uM after 24 hrs using CFSE staining by flow cytometry relative to original parent cells. (Flow cytometry measures light scatter and fluorescence of single cells or particles in a stream.)
The subject of assay [2] is Jurkat. The assay is described as follows: Antiproliferative activity against human Jurkat cells assessed as parent population at 10 uM after 24 hrs using CFSE staining by flow cytometry (reference value: 23.70 %).
Assay [3] deals with Jurkat. The assay is described as follows: Antiproliferative activity against human Jurkat cells assessed as non proliferative fraction at 10 uM after 24 hrs using CFSE staining by flow cytometry (reference value: 0.59).
For assay [4], the system named is Jurkat. The assay is described as follows: Antiproliferative activity against human Jurkat cells assessed as proliferation index at 10 uM after 24 hrs using CFSE staining by flow cytometry relative to original parent cells (reference value: 2.48).
Assay [5] concerns Jurkat. Kind of assay: Antiproliferative activity against human Jurkat cells assessed as 2nd generation cell population at 10 uM after 24 hrs using CFSE staining by flow cytometry relative to control.
Assay [6] concerns Jurkat. Kind of assay: Antiproliferative activity against human Jurkat cells assessed as 5th generation cell population at 10 uM after 24 hrs using CFSE staining by flow cytometry (reference value: 18.43 %).
In assay [7] the test system is Jurkat. Kind of assay: Antiproliferative activity against human Jurkat cells assessed as 4th generation cell population at 10 uM after 24 hrs using CFSE staining by flow cytometry (reference value: 25. 99 %).
Assay [8] relates to Jurkat. The assay is described as follows: Inhibition of cell division in human Jurkat cells at 1 uM.
Assay [9] deals with Jurkat. Kind of assay: Antiproliferative activity against human Jurkat cells assessed as 3rd generation cell population at 10 uM after 24 hrs using CFSE staining by flow cytometry relative to control.

Regarding `CC1(C)OC1CCCc1cc(O)ccc1O` (stereo unspecified), the values for the Ratio in the assay on Jurkat [1], in the assay on Jurkat [3] and in the assay on Jurkat [4] were 4.76, 0.94 and 1.11, respectively. Besides, the Activity is recorded as 84.84% in the assay on Jurkat [2] and 7.31% with Jurkat [5].

For `C[C@@H](CC[C@H]1OC1(C)C)c1cc(O)ccc1O` (relative stereo), the Ratio stood at 10.81 in the assay on Jurkat [1], 0.39 with Jurkat [3] and 6.47 in the assay on Jurkat [4]. Besides, the Activity in the assay on Jurkat [2] turned out to be 6.02%; with Jurkat [6] it was 64.37%.

As for `Cc1ccc([C@@H](C)CC[C@H]2OC2(C)C)c(O)c1` (relative stereo), the Ratio in the assay with Jurkat [1] was 9.67; in the assay on Jurkat [3], 0.41; with Jurkat [4] it was 4.77. For the same molecule, the Activity is reported as 8.71% in the assay on Jurkat [2] and 38.84% in the assay with Jurkat [6].

Consider `Cc1ccc([C@H](C)CC[C@H]2OC2(C)C)c(O)c1` (relative stereo), for which the figures for the Ratio in the assay with Jurkat [1], with Jurkat [3] and in the assay on Jurkat [4] were 10.46, 0.42 and 5.2, respectively. The Activity in the assay on Jurkat [2] was 8.09%; in the assay on Jurkat [6], 49.3%.

For the molecule `CC[C@@H](CC[C@H]1OC1(C)C)c1ccccc1O` (relative stereo), the Ratio in the assay on Jurkat [1] is 8.5; in the assay on Jurkat [3] it was 0.48; with Jurkat [4], 4.1. For the same molecule, the Activity in the assay with Jurkat [2] amounted to 11.75%; with Jurkat [6], 29.37%.

`CC[C@H](CC[C@H]1OC1(C)C)c1ccccc1O` (relative stereo): the Ratio is recorded as 9.29 in the assay on Jurkat [1], 0.46 with Jurkat [3] and 4.38 in the assay with Jurkat [4]. Also, the Activity in the assay on Jurkat [2] was 10.46%; with Jurkat [6] it was 33.67%.

In the case of `Cc1ccc([C@H](C)CC[C@@H]2CO2)c(O)c1` (relative stereo), the Ratio in the assay with Jurkat [1] is on record as 10.07; in the assay with Jurkat [3], 0.37; with Jurkat [4], 5.86. In addition, the results for the Activity in the assay with Jurkat [2] and with Jurkat [6] were 6.23% and 47.87%, respectively.

On to `Cc1ccc([C@@H](C)CC[C@@H]2CO2)c(O)c1` (relative stereo), for which the values for the Ratio with Jurkat [1], with Jurkat [3] and in the assay on Jurkat [4] were 9.25, 0.3 and 5.71, respectively. Further, the figures for the Activity in the assay on Jurkat [2] and in the assay on Jurkat [6] were 5.27% and 40.06%, respectively.

For the molecule `CC[C@@H](CC[C@@H]1CO1)c1cc(O)ccc1O` (relative stereo), the Ratio with Jurkat [1] worked out at 10.11; in the assay on Jurkat [3], 0.4; in the assay with Jurkat [4], 5.06. Also, the values for the Activity in the assay with Jurkat [2] and with Jurkat [6] were 7.95% and 48.54%, respectively.

As to `CC[C@H](CC[C@@H]1CO1)c1cc(O)ccc1O` (relative stereo), the Ratio in the assay with Jurkat [1] came to 10.24; in the assay with Jurkat [3], 0.42; in the assay on Jurkat [4], 5.01. The Activity in the assay with Jurkat [2] is 8.46%; in the assay with Jurkat [6], 47.67%.

`CC[C@H](CC[C@@H](C)O)c1ccccc1O` (relative stereo): the Ratio amounted to 10.18 in the assay with Jurkat [1], 0.32 with Jurkat [3] and 6.11 with Jurkat [4]. The Activity was 5.19% with Jurkat [2] and 46.79% with Jurkat [6].

For `Cc1cc(O)c([C@H](C)CC[C@H]2OC2(C)C)cc1O` (relative stereo), the Ratio in the assay with Jurkat [1] is 8.05; in the assay on Jurkat [3] it was 0.87; with Jurkat [4], 1.62. Further, the Activity in the assay on Jurkat [2] was found to be 53.81%; in the assay with Jurkat [7] it was 13.9%. In the assay with Jurkat [8], this molecule showed an inhibition at 1 µM of 100%.

For `Cc1cc(O)c([C@@H](C)CC[C@H]2OC2(C)C)cc1O` (relative stereo), the Ratio in the assay with Jurkat [1] worked out at 6.14; with Jurkat [3], 0.92; in the assay with Jurkat [4], 1.36. Moreover, the figures for the Activity in the assay on Jurkat [9] and in the assay on Jurkat [2] were 17.04% and 67.44%, respectively. Further, in the assay on Jurkat [8], the inhibition at 1 µM is 100%.

In the case of `CC[C@H](CC[C@H]1OC1(C)C)c1cc(O)ccc1O` (relative stereo), the Ratio in the assay with Jurkat [1] worked out at 6.16; in the assay on Jurkat [3], 0.59; in the assay with Jurkat [4], 2.73. For the same molecule, the Activity in the assay with Jurkat [9] was 35.78%; in the assay with Jurkat [2], 21.49%; with Jurkat [7] it was 13.9%; with Jurkat [6], 11.8%.

With `CC[C@@H](CC[C@H]1OC1(C)C)c1cc(O)ccc1O` (relative stereo), the Ratio is 7.93 in the assay on Jurkat [1], 0.62 in the assay on Jurkat [3] and 3.04 with Jurkat [4]. The Activity in the assay on Jurkat [9] stood at 21.3%; in the assay with Jurkat [2], 20.3%; in the assay with Jurkat [7], 20.47%; with Jurkat [6], 18.48%.

Take `Cc1cc(O)c([C@H](C)CC[C@@H]2CO2)cc1O` (relative stereo): the Ratio with Jurkat [1] is 7.64; in the assay with Jurkat [3], 0.86; in the assay on Jurkat [4] it was 1.85. The Activity worked out at 46.39% in the assay with Jurkat [2] and 18.91% in the assay with Jurkat [6].

On to `Cc1cc(O)c([C@@H](C)CC[C@@H]2CO2)cc1O` (relative stereo), for which the Ratio is 5.7 in the assay with Jurkat [1], 0.98 in the assay with Jurkat [3] and 1.09 in the assay with Jurkat [4]. For the same molecule, the figures for the Activity with Jurkat [9] and in the assay with Jurkat [2] were 6.73% and 89.59%, respectively.

Values taken from ChEMBL document CHEMBL2157992, “SAR studies of epoxycurcuphenol derivatives on leukemia CT-CD4 cells” (2012).
